Laboratory results reported in patent US12576040B2, “Ionizable lipids and methods of manufacture and use thereof” (priority 2020, dated 2026).

system: not listed separately; assay: physchem; format: physicochemical; settings: not given
Experimental: The pH-dependence of proton NMR chemical shifts was used to measure the pKa's of the ionizable lipid water-soluble analogues (WSA) following published methods5,6. Chemical shifts of piperazine, imidazole, 2-chloroacetic acid and acetic acid were used as internal pH indicators. Solutions for MC3-WSA were prepared with 100 mM KCl, 2 mM piperazine, 2 mM imidazole, and 5 mM water soluble ionizable lipid analogue in 95% H2O-5% D2O. Solutions for the terminal(N1) and aza amines(N2) at the p-position of carboxylic esters of C24-WSA were prepared with 100 mM KCl, 2 mM piperazine, 2 mM imidazole, 0.2 mM DSS, and 5 mM water soluble ionizable lipid analogue in 95% H2O-5% D2O. Solutions for the internal amine (N3) of C24-WSA were prepared with 100 mM KCl, 2 mM chloroacetic acid, 2 mM acetic acid, 0.2 mM DSS, and 5 mM water soluble ionizable lipid analogue in 95% H2O-5% D2O. Solutions were split into two equal volumes and one titrated to a lower pH using 0.1 M HCl and the other to an upper pH using 0.1 M NaOH where the lower and upper pH bracketed the desired range of pH. Intermediate pH values were obtained by mixing different proportions of these two solutions. NMR measurements were performed on a Bruker 400 MHz spectrometer where 1H spectra were acquired at each of ˜24 pH values ranging from the lower to upper pH. […] Chemical shifts from piperazine, imidazole, 2-chloroacetic acid, and acetic acid were then used to calculate the pH of each solution according to published methods5,6 and the chemical shifts of protons adjacent to each nitrogen in the ionizable lipid water sluble analogue headgroup were fit to the Henderson-Hasselbalch equation to provide the pKa of each Nitrogen. Spectra are in Supplementary FIG. 2.

| Compound | difference between NMR-measured and theoretical pKas [units] |
| --- | --- |
| CN1CCN(CCCCN(CCC(=O)OC(C)(C)C)CCC(=O)OC(C)(C)C)CC1 [Lipid C24-WSA] | ≤ 0.4 |

same assay, conditions: water soluble analogue; read-out: pKa by 1H NMR, central nitrogen

| Compound | pKa |
| --- | --- |
| CN1CCN(CCCCN(CCC(=O)OC(C)(C)C)CCC(=O)OC(C)(C)C)CC1 [Lipid C24-WSA] | 3.7 |

same assay, conditions: water soluble analogue; read-out: pKa by 1H NMR, nitrogen closest to the linker

| Compound | pKa |
| --- | --- |
| CN1CCN(CCCCN(CCC(=O)OC(C)(C)C)CCC(=O)OC(C)(C)C)CC1 [Lipid C24-WSA] | 7.5 |

same assay, conditions: water soluble analogue; read-out: pKa by 1H NMR, terminal nitrogen

| Compound | pKa |
| --- | --- |
| CN1CCN(CCCCN(CCC(=O)OC(C)(C)C)CCC(=O)OC(C)(C)C)CC1 [Lipid C24-WSA] | 8.1 |

system: HEK 293 cells; assay: Firefly Luciferase Assay for mRNA Delivery Efficiency / transfection in vitro; format: cell-based; parameters: key: +: successfully transfected HEK 293 cells in vitro; −: not active; settings: Table 12; HEK 293 cells in vitro
Excerpt: FIG. 32 illustrates luciferase reported expression in vitro and in vivo.
In certain embodiments, the invention encompasses a new class of ionizable lipids (the Ionizable Lipids of the Invention) synthesized bearing two ionizable amines and two degradable ester linkers to linoleic acid tails or branched tails. DL=DiLinoleic Acid, ADDE=Azane Diyl DiEthyl, Cx/Cy=carbon spacers, DMA=DiMethylAmine, Pyr=Pyridine, PipZ=PiperaZine, PipD=PiperiDine, DIPA=DiIsopropylamine, DM=DiMethyl, BOD=BisOctylDecyl.
Summary: LNPs were formulated using total lipid concentration of 50 mM comprised of ionizable lipids/DSPC/Cholesterol/PEG-DMG (50:10:38.5:1.5 mol %). Each one of the lipids were solubilized in ethanol until a clear solution was observed. The four lipids were combined to get 50 mM total lipid concentration (25/5/19.25/0.75 mM respectively) and serial dilutions to get 27.74 mM. […] Purified mRNA was ethanol precipitated, washed and resuspended in nuclease-free water to reach a concentration of 1 mg/ml. […] 16 μl Lipid Mix and 32 μl mRNA solution were mixed on Setting 3 and ejected into 48 μl 1×DPBS pH 7.4. The formed LNPS were then diluted into an additional 96 μl 1×DPBS pH 7.4. LNPs were then dialyzed against 1×DPBS pH 7.4 for 6×1 hr. LNPs were then diluted so that 32 ul contained 200 ng and 12K HEK293 cells were transfected with the same […]. • A: Firefly Luciferase Assay for mRNA Delivery Efficiency. After 24 hours of transfection, transfected cells were conditioned to room temperature for 30 minutes prior to the Firefly Luciferase Assay. Quantilum Recombinant Luciferase standard curve was prepared in 10% EMEM in 5-fold serial dilutions. 50 ul of each standard point from the range of 3.9×10^−5 mg/ml to 4.88×10^−3 mg/ml were included in the microplate as a positive enzyme activity control (data not shown) to maintain a linearity of 10^7 RLU/mg/ml. The ONE-Glo substrate, previously conditioned to room temperature for at least 4 hours, was added to each untransfected, transfected and Quantilum wells in a ratio 1:1. Assay plates were incubated for 3 minutes in darkness and immediately introduced into the Cytation 5 Cell Imaging Multi-Mode Reader (Biotek) to read luminescence. The results are illustrated in FIG. 7. • B: Ribogreen Assay for mRNA Encapsulation Efficiency. 1×TE Buffer and Triton Buffer (2% v/v in 1×TE Buffer) were added in duplicates into a black microplate per LNP. LNPs were diluted to 4 ng/ul in 1×DPBS pH 7.4 and added to each TE/Triton well in a ratio 1:1. Two standard curves were included in the Ribogreen Assay, one containing mRNA and 1×TE Buffer and other containing mRNA and Triton Buffer. Each one of these standard curves were used to calculate the mRNA concentration in each TE Buffer or Triton Buffer. This approach using two standard curves is more accurate for calculating the encapsulation efficiency and mRNA concentrations, in comparison to a single standard curve. Standards were included in the microplate after diluted LNPs were added to the plate. Microplates were incubated at 37° C. for 10 minutes to extract LNPs with Triton. Ribogreen reagent was diluted 1:100 in 1×TE Buffer and added to each well in a ratio 1:1. Microplates were immediately introduced into the Cytation 5 Cell Imaging Multi-Mode Reader (Biotek) to read Fluorescence (Ex485/Em528). The results are illustrated in FIG. 8. • C: Dynamic Light Scattering for LNP Size (red dots are PDI right y axis). LNPs were diluted to 6.25 ng/ul in 1×DPBS pH 7.4 and transferred into a quartz cuvette (ZEN2112) to measure size by Dynamic Light Scattering (DLS) in the Zetasizer Nano ZS (Malvern Panalytical) using particle RI of 1.45 and Absorption of 0.001 in 1×PBS at 25° C. with viscosity of 1.02 cP and RI of 1.335.

| Compound | Transfection +/− |
| --- | --- |
| CCCCC/C=C\C/C=C\CCCCCCCCOC(=O)CCN(CCC(=O)OCCCCCCCC/C=C\C/C=C\CCCCC)CCN1CCCCC1 (racemic) [DL-ADDE-C2/C2-PipD] | + |
| CCCCC/C=C\C/C=C\CCCCCCCCOC(=O)CCN(CCCN1CCN(C)CC1)CCC(=O)OCCCCCCCC/C=C\C/C=C\CCCCC (racemic) [DL-ADDE-C2/C3-4Me-PipZ] | + |
| CCCCC/C=C\C/C=C\CCCCCCCCOC(=O)CCCCN(CCCCC(=O)OCCCCCCCC/C=C\C/C=C\CCCCC)CCCCN1CCCCC1 (racemic) [DL-ADDE-C4/C4-PipD] | + |
| CCCCC/C=C\C/C=C\CCCCCCCCOC(=O)CCN(CCCN(C)C)CCC(=O)OCCCCCCCC/C=C\C/C=C\CCCCC (racemic) [DL-ADDE-C2/C3-DMA] | + |
| CCCCC/C=C\C/C=C\CCCCCCCCOC(=O)CCN(CCC(=O)OCCCCCCCC/C=C\C/C=C\CCCCC)CCN(C)C (racemic) [DL-ADDE-C2/C2-DMA] | + |
| CCCCCCCCCCC(CCCCCCCC)COC(=O)CCN(CCCCN1CCN(C)CC1)CCC(=O)OCC(CCCCCCCC)CCCCCCCCCC (centres unmarked) [BOD-ADDE-C2/C4-4-Me-PipZ] | + |
| CCCCC/C=C\C/C=C\CCCCCCCCOC(=O)CCN(CCNC(=O)OC(C)(C)C)CCC(=O)OCCCCCCCC/C=C\C/C=C\CCCCC (racemic) [DL-ADDE-C2/C2-BocA] | − |
| CCCCC/C=C\C/C=C\CCCCCCCCOC(=O)CCN(CCCN1CCCC1)CCC(=O)OCCCCCCCC/C=C\C/C=C\CCCCC (racemic) [DL-ADDE-C2/C3-Pyr] | + |
| CCCCC/C=C\C/C=C\CCCCCCCCOC(=O)CCN(CCC(=O)OCCCCCCCC/C=C\C/C=C\CCCCC)CC(C)(C)CN(C)C (racemic) [DL-ADDE-C2/C3-DM-DMA] | − |
| CCCCC/C=C\C/C=C\CCCCCCCCOC(=O)CCCCN(CCCCC(=O)OCCCCCCCC/C=C\C/C=C\CCCCC)CCCCN(C)C (racemic) [DL-ADDE-C4/C4-DMA] | + |
| CCCCC/C=C\C/C=C\CCCCCCCCOC(=O)CCN(CCC(=O)OCCCCCCCC/C=C\C/C=C\CCCCC)CCN(C(C)C)C(C)C (racemic) [DL-ADDE-C2/C2-DIPA] | − |
| CCCCC/C=C\C/C=C\CCCCCCCCOC(=O)CCCCN(CCCCC(=O)OCCCCCCCC/C=C\C/C=C\CCCCC)CCCCN1CCN(C)CC1 (racemic) [DL-ADDE-C4/C4-4Me-PipZ] | + |
| CCCCC/C=C\C/C=C\CCCCCCCCOC(=O)CCN(CCC(=O)OCCCCCCCC/C=C\C/C=C\CCCCC)CCN1CCN(C)CC1 (racemic) [DL-ADDE-C2/C2-4Me-PipZ] | + |
| CCCCC/C=C\C/C=C\CCCCCCCCOC(=O)CCN(CCCCN1CCN(C)CC1)CCC(=O)OCCCCCCCC/C=C\C/C=C\CCCCC (racemic) [DL-ADDE-C2/C4-4Me-PipZ] | + |
| CCCCCCCCCCC(CCCCCCCC)COC(=O)CCN(CCC(=O)OCC(CCCCCCCC)CCCCCCCCCC)CCN1CCN(C)CC1 (centres unmarked) [BODD-ADDE-C2/C2-4Me-PipZ] | + |
| CCCCC/C=C\C/C=C\CCCCCCCCOC(=O)CCN(CCN)CCC(=O)OCCCCCCCC/C=C\C/C=C\CCCCC (racemic) [DL-ADDE-C2/C2-DeBocA] | − |
| CCCCC/C=C\C/C=C\CCCCCCCCOC(=O)CCN(CCCCN(C)C)CCC(=O)OCCCCCCCC/C=C\C/C=C\CCCCC (racemic) [DL-ADDE-C2/C4-DMA] | + |

same assay, conditions: Table 13A

| Compound | Transfection +/− |
| --- | --- |
| CCCCC/C=C\C/C=C\CCCCCCCCOC(=O)CCN(CCCO)CCC(=O)OCCCCCCCC/C=C\C/C=C\CCCCC (racemic) [DL-ADDE-PA] | − |
| CCCCC/C=C\C/C=C\CCCCCCCCOC(=O)CCN(CCC(=O)OCCCCCCCC/C=C\C/C=C\CCCCC)CCC(C)C (racemic) [DL-ADDE-IP] | − |
| CCCCC/C=C\C/C=C\CCCCCCCCOC(=O)CCN(CCO)CCC(=O)OCCCCCCCC/C=C\C/C=C\CCCCC (racemic) [DL-ADDE-EA] | − |

same assay, conditions: Table 13C

| Compound | Transfection +/− |
| --- | --- |
| CCCCC/C=C\C/C=C\CCCCCCCC(=O)NCCN [L-Amide-AE] | − |
| CCCCC/C=C\C/C=C\CCCCCCCC(=O)NCCN(C)C [L-Amide-DMA] | − |
| CCCCC/C=C\C/C=C\CCCCCCCC(=O)NCCSSCCN [L-Amide-AEDS] | − |

system: not given; assay: not given; format: physicochemical; settings: Table 11a
Experimental: In certain embodiments, the pKa of the Ionizable Lipids of the Invention included in the LNP is measured by fluorescent enhancement of an anionic lipophilic dye TNS binding to the LNP containing the ionizable lipid. Prior studies have shown that the TNS pKa needs to be near 6.5 for efficient delivery to liver upon IV administration. The pKa in the aqueous phase can be predicted by software such ACDLabs Percepta, resulting in pKas that are higher than the TNS pKa. Given the importance of the LNP pKa in determining their efficiency, we developed new methods (zeta potential, ^1H NMR, modeling) to link the intrinsic pKa of the ionizable lipid to LNP ionization properties, in order to rationally design effective systems for mRNA delivery.
In certain embodiments, the hydrophilic DMG-PEG forms the shell of the LNP. The amount of nucleic acid is represented by the NP mole ratio of the amine on the ionizable lipid to the phosphate groups on the nucleic acid backbone and is typically 3-6. In certain embodiments, the pKa of the LNP to be in the 6-7 range corresponding to the pH in the early endosome. […] The pKa of the LNP was measured using the pH-dependence of fluorescence enhancement of the anionic dye TNS. In certain embodiments, the pKa-dependent endosomal release mechanism was described as an ion-pairing event between the cationic protonated ionizable lipid and anionic endosomal phospholipids where a divergent cone-shape lipid tail of the ionizable lipid facilitates membrane rupture.

| Compound | ΔpKa = Classic-Galas | ΔpKa = Classic-TNS |
| --- | --- | --- |
| CCCCCCCCCOC(=O)CCCCCCCN(CCO)CCCCCCCC(=O)OC(CCCCCCCC)CCCCCCCC [Moderna Lipid 5] | 3.34 | 2.34 |
| CCCCC/C=C\C/C=C\CCCCCCCCC1(CCCCCCCC/C=C\C/C=C\CCCCC)OCC(CCN(C)C)O1 (centres unmarked) [KC2] | 2.32 | 2.62 |
| CCCCC/C=C\C/C=C\CCCCCCCCOCC(CN(C)C)OCCCCCCCC/C=C\C/C=C\CCCCC (centres unmarked) [DLinDMA, 1,2-dilinoleyloxy-N,N-dimethylaminopropane] | 1.6 | 1.8 |
| CCCCCCCC(=O)N(CCCN(C)C)C(CCCCCCCCC(=O)OC(CCCCCC)CCCCCC)CCCCCCCCC(=O)OC(CCCCCC)CCCCCC [Acuitas Compound 10] | 3.04 | 3.24 |
